Reference: publication PMC6001238, “Iterative Chemical Engineering of Vancomycin Leads to Novel Vancomycin Analogs With a High in Vitro Therapeutic Index” (Frontiers in Microbiology, 2018)
≈ marks a conversion by molar mass, not a printed value. Like-named read-outs stand apart in the source and are kept apart here.

Legend:
VE 150 (VanB) = assay: MIC, VanB-type VRE strain VE 150; type: cell-based, Enterococcus; conditions: VE 150, VanB; read-out: MIC
Procedure, shortened: (§1)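 Read-out: lowest concentration inhibiting growth in broth microdilution, CLSI method. Water and broth-only wells acted as controls; in one case 10 μM vancomycin (final) was present with the compound.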

E. faecalis VRE 37 = assay: MIC, broth microdilution, vancomycin-resistant E. faecalis VRE 37 (VanA); type: cell-based, Enterococcus faecalis
Procedure, shortened: as §1

E. faecalis VRE 6 = assay: MIC, broth microdilution, vancomycin-resistant E. faecalis VRE 6 (VanA); type: cell-based, Enterococcus faecalis
Procedure, shortened: as §1

[1] = tested on: L1210, CEM and HeLa cell lines; assay: Cytostatic activity, average or summary over L1210, CEM and HeLa; type: cell-based
Procedure, shortened: (§2)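 Coulter counter cell counts after 37°C culture with compound; IC50 = concentration giving 50% growth inhibition vs negative control. Incubation: L1210 2 d, CEM 3 d, HeLa 4 d. Suspension density before mixing with an equal volume of dilution: 300,000–500,000 cells/mL.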

[2] = tested on: human T-lymphocyte (CEM) cells; assay: Cytostatic activity, CEM cell proliferation; type: cell-based; conditions: mean ± SD of three experiments; highest concentration tested 250 µM; 3 days; read-out: Toxicity (IC50) CEM
Procedure, shortened: as §2

VE 157 (VanB) = assay: MIC, VanB-type VRE strain VE 157; type: cell-based, Enterococcus; conditions: VE 157, VanB; read-out: MIC
Procedure, shortened: as §1

E. faecalis VSE 1 = assay: MIC, broth microdilution, vancomycin-sensitive E. faecalis (VSE 1); type: cell-based, Enterococcus faecalis
Procedure, shortened: as §1

33 clinical VRE isolates = assay: MIC against a set of 33 clinical VRE isolates (range, MIC50, TI); type: cell-based, Enterococcus faecalis
Procedure, shortened: as §1

[3] = tested on: Clostridium difficile ATJ ribotype 014/20; assay: MIC, plate drop assay, C. difficile ATJ ribotype 014/20; type: cell-based; conditions: C. difficile ATJ ribotype 014/20
Procedure, shortened: (§3)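 Lawns of each strain were made in soft BHI agar (0.4%) supplemented with CaCl2⋅2H2O and MgCl2⋅6H2O. Twofold compound dilutions (10 μL) were spotted, air-dried and incubated overnight at 37°C anaerobically; MIC read as cleared spots, in triplicate with water as negative control.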

[4] = tested on: Clostridium difficile AIU ribotype 027; assay: MIC, plate drop assay, C. difficile AIU ribotype 027; type: cell-based; conditions: for MIC-fold improvement vs. vancomycin: C. difficile AIU ribotype 027
Procedure, shortened: as §3

E. faecalis VRE 53 = assay: MIC, broth microdilution, vancomycin-resistant E. faecalis VRE 53 (VanA); type: cell-based, Enterococcus faecalis
Procedure, shortened: as §1

MRSA KS6 = assay: MIC, broth microdilution, MRSA KS6; type: cell-based, Staphylococcus aureus
Procedure, shortened: as §1

S. aureus VISA/HIP5827 = assay: MIC, broth microdilution, vancomycin-intermediate S. aureus VISA HIP5827; type: cell-based, Staphylococcus aureus
Procedure, shortened: as §1

VE 152 (VanB) = assay: MIC, VanB-type VRE strain VE 152; type: cell-based, Enterococcus; conditions: VE 152, VanB; read-out: MIC
Procedure, shortened: as §1

E. faecalis VRE 29 = assay: MIC, broth microdilution, vancomycin-resistant E. faecalis VRE 29 (VanA); type: cell-based, Enterococcus faecalis
Procedure, shortened: as §1

MRSA KS89 = assay: MIC, broth microdilution, MRSA KS89; type: cell-based, Staphylococcus aureus
Procedure, shortened: as §1

VE 149 (VanB) = assay: MIC, VanB-type VRE strain VE 149; type: cell-based, Enterococcus; conditions: VE 149, VanB; read-out: MIC
Procedure, shortened: as §1

[5] = tested on: S. aureus VSSA (ATCC 6538); assay: MIC, broth microdilution, vancomycin-sensitive S. aureus (VSSA/MSSA, ATCC 6538); type: cell-based, Staphylococcus aureus
Procedure, shortened: as §1

MRSA = assay: Minimum bactericidal concentration against MRSA; type: cell-based, Staphylococcus aureus
Experimental: Plates were incubated overnight at 37°C and colony growth was inspected.

[6] = tested on: Murine leukemia (L1210) cells; assay: Cytostatic activity, L1210 cell proliferation; type: cell-based; conditions: mean ± SD of three experiments; highest concentration tested 250 µM; 2 days; read-out: Toxicity (IC50) L1210
Procedure, shortened: as §2

VE 82 (VanC1) = assay: MIC, VanC1-type VRE strain VE 82; type: cell-based, Enterococcus gallinarum; conditions: VE 82, VanC1; read-out: MIC
Procedure, shortened: as §1

MRSA KS1 = assay: MIC, broth microdilution, MRSA KS1; type: cell-based, Staphylococcus aureus
Procedure, shortened: as §1

S. aureus VRSA = assay: MIC, broth microdilution, vancomycin-resistant S. aureus (VRSA); type: cell-based, Staphylococcus aureus
Procedure, shortened: as §1

[7] = tested on: human cervix carcinoma (HeLa) cells; assay: Cytostatic activity, HeLa cell proliferation; type: cell-based; conditions: mean ± SD of three experiments; highest concentration tested 250 µM; 4 days; read-out: Toxicity (IC50) HeLa
Procedure, shortened: as §2

[8] = tested on: 24 clinical MRSA isolates; assay: MIC against a set of 24 clinical MRSA isolates (range, MIC50, TI); type: cell-based, Staphylococcus aureus
Procedure, shortened: as §1

MRSA KS2 = assay: MIC, broth microdilution, MRSA KS2; type: cell-based, Staphylococcus aureus
Procedure, shortened: as §1

VE 148 (VanB) = assay: MIC, VanB-type VRE strain VE 148; type: cell-based, Enterococcus; conditions: VE 148, VanB; read-out: MIC
Procedure, shortened: as §1

`CN[C@H](CC(C)C)C(=O)N[C@H]1C(=O)N[C@@H](CC(N)=O)C(=O)N[C@H]2C(=O)N[C@H]3C(=O)N[C@H](C(=O)N[C@H](C(=O)NCC(=O)Nc4ccc5c(c4)Cc4ccccc4-5)c4cc(O)cc(O)c4-c4cc3ccc4O)[C@H](O)c3ccc(c(Cl)c3)Oc3cc2cc(c3O[C@@H]2O[C@H](CO)[C@@H](O)[C@H](O)[C@H]2O[C@H]2C[C@](C)(N)[C@H](O)[C@H](C)O2)Oc2ccc(cc2Cl)[C@H]1O` [Vanc-42] was tested, and the MIC (VE 150 (VanB)) was 3.13 µM (≈ 5.23 µg/mL), the MIC (E. faecalis VRE 37; Enterococcus faecalis VRE 37 (vancomycin-resistant), read-out: MIC) was 3.13 µM (≈ 5.23 µg/mL) and the “MIC-fold improvement vs. vancomycin” value (E. faecalis VRE 37; VRE 37, ratio of MIC of vancomycin and MIC of analogue) was 128. For the same compound, the MIC (E. faecalis VRE 6; Enterococcus faecalis VRE 6 (vancomycin-resistant), read-out: MIC) was 0.78 µM (≈ 1.3 µg/mL), the “MIC-fold improvement vs. vancomycin” value (E. faecalis VRE 6; VRE 6, ratio of MIC of vancomycin and MIC of analogue) was 256 and the IC50 ([1]; average IC50 used for TI in Table S5, >250 entered as 250, read-out: IC50) was 173 µM. The IC50 ([1]; average of L1210, CEM and HeLa, read-out: Toxicity (IC50) Average) was 173 µM, the IC50 [2] was 92 ± 3 µM and the MIC (VE 157 (VanB)) was 3.13 µM (≈ 5.23 µg/mL). The MIC (E. faecalis VSE 1; Enterococcus faecalis VSE 1 (vancomycin-sensitive), read-out: MIC) was 0.20 µM (≈ 0.334 µg/mL), the “MIC-fold improvement vs. vancomycin” value (E. faecalis VSE 1; VSE 1, ratio of MIC of vancomycin and MIC of analogue) was 8 and the “MIC Range” value (33 clinical VRE isolates; 33 clinical VRE isolates) was 0.39 to 6.25 µM. The “TI (IC50/MIC50)” value (33 clinical VRE isolates; in vitro therapeutic index, VRE) was 111, the MIC50 (33 clinical VRE isolates; median MIC, 33 clinical VRE isolates, read-out: MIC50) was 1.56 µM (≈ 2.6 µg/mL) and the “MIC-fold improvement vs. vancomycin” value [3] was “up to 45”. The “MIC-fold improvement vs. vancomycin” value ([3]; listed as Vanc- 42) was 22, the “MIC-fold improvement vs. vancomycin” value [4] was at most 58 and the MIC ([4]; C. difficile AIU ribotype 027, plate drop assay) was 0.78 µM (≈ 1.3 µg/mL). For the same compound, the “MIC-fold improvement vs. vancomycin” value ([4]; listed as Vanc- 42) was 58, the MIC (E. faecalis VRE 53; Enterococcus faecalis VRE 53 (vancomycin-resistant), read-out: MIC) was 12.5 µM (≈ 20.9 µg/mL) and the “MIC-fold improvement vs. vancomycin” value (E. faecalis VRE 53; VRE 53, ratio of MIC of vancomycin and MIC of analogue) was 32. For the same compound, the “MIC-fold improvement vs. vancomycin” value (MRSA KS6; MRSA KS6, ratio of MIC of vancomycin and MIC of analogue) was 4, the MIC (MRSA KS6; Staphylococcus aureus MRSA KS6, read-out: MIC) was 0.20 µM (≈ 0.334 µg/mL) and the MIC (S. aureus VISA/HIP5827; Staphylococcus aureus VISA/HIP5827, read-out: MIC) was 0.78 µM (≈ 1.3 µg/mL). For the same compound, the “MIC-fold improvement vs. vancomycin” value (S. aureus VISA/HIP5827; VISA/HIP5827, ratio of MIC of vancomycin and MIC of analogue) was 8, the MIC (VE 152 (VanB)) was 3.13 µM (≈ 5.23 µg/mL) and the MIC (E. faecalis VRE 29; Enterococcus faecalis VRE 29 (vancomycin-resistant), read-out: MIC) was 1.56 µM (≈ 2.6 µg/mL). The “MIC-fold improvement vs. vancomycin” value (E. faecalis VRE 29; VRE 29, ratio of MIC of vancomycin and MIC of analogue) was 256, the “MIC-fold improvement vs. vancomycin” value (MRSA KS89; MRSA KS8, ratio of MIC of vancomycin and MIC of analogue) was 4 and the MIC (MRSA KS89; Staphylococcus aureus MRSA KS8, read-out: MIC) was 0.20 µM (≈ 0.334 µg/mL). The MIC (VE 149 (VanB)) was 3.13 µM (≈ 5.23 µg/mL), the MIC ([5]; Staphylococcus aureus VSSA, read-out: MIC) was 0.78 µM (≈ 1.3 µg/mL) and the “MIC-fold improvement vs. vancomycin” value ([5]; VSSA, ratio of MIC of vancomycin and MIC of analogue) was 1. The “MBC relative to MIC” value (MRSA) was “MBC equaling their MIC values”, the IC50 [6] was 177 ± 103 µM and the MIC (VE 82 (VanC1)) was 1.56 µM (≈ 2.6 µg/mL). The “MIC-fold improvement vs. vancomycin” value (MRSA KS1; MRSA KS1, ratio of MIC of vancomycin and MIC of analogue) was 2, the MIC (MRSA KS1; Staphylococcus aureus MRSA KS1, read-out: MIC) was 0.39 µM (≈ 0.651 µg/mL) and the MIC (S. aureus VRSA; Staphylococcus aureus VRSA, read-out: MIC) was 1.56 µM (≈ 2.6 µg/mL). The “MIC-fold improvement vs. vancomycin” value (S. aureus VRSA; VRSA, ratio of MIC of vancomycin and MIC of analogue) was 64, the IC50 [7] was over 250 µM and the “MIC Range” value ([8]; 24 clinical MRSA isolates) was 0.10 to 0.39 µM. For the same compound, the “TI (IC50/MIC50)” value ([8]; in vitro therapeutic index, MRSA) was 865, the MIC50 ([8]; median MIC, 24 clinical MRSA isolates, read-out: MIC50) was 0.20 µM (≈ 0.334 µg/mL) and the “MIC-fold improvement vs. vancomycin” value (MRSA KS2; MRSA KS2, ratio of MIC of vancomycin and MIC of analogue) was 4. The MIC (MRSA KS2; Staphylococcus aureus MRSA KS2, read-out: MIC) was 0.20 µM (≈ 0.334 µg/mL) and the MIC (VE 148 (VanB)) was 3.13 µM (≈ 5.23 µg/mL).
